From the kinase profiling compilation of Christmann-Franck et al. (2016)
Several values for one entry are separate records, joined by “and”; a condition that tells them apart may be missing. Equal values may be shown once.

Tests used:
Assay in all cases: radiometric filter-binding kinase assay, Kinase HotSpot
Settings in all cases: compound 0.5 µM; ATP 10 µM
DSTYK (human) = DSTYK (human) (UniProt Q6XUX3)
CAMK1D (human) = CAMK1D (human) (UniProt Q8IU85)
NTRK2 (human) = NTRK2 (human) (UniProt Q16620)
FGR (human) = FGR (human) (UniProt P09769)
TAOK1 (human) = TAOK1 (human) (UniProt Q7L7X3)
TAOK1 (human), sequence (Q7L7X3 whole entry, looked up): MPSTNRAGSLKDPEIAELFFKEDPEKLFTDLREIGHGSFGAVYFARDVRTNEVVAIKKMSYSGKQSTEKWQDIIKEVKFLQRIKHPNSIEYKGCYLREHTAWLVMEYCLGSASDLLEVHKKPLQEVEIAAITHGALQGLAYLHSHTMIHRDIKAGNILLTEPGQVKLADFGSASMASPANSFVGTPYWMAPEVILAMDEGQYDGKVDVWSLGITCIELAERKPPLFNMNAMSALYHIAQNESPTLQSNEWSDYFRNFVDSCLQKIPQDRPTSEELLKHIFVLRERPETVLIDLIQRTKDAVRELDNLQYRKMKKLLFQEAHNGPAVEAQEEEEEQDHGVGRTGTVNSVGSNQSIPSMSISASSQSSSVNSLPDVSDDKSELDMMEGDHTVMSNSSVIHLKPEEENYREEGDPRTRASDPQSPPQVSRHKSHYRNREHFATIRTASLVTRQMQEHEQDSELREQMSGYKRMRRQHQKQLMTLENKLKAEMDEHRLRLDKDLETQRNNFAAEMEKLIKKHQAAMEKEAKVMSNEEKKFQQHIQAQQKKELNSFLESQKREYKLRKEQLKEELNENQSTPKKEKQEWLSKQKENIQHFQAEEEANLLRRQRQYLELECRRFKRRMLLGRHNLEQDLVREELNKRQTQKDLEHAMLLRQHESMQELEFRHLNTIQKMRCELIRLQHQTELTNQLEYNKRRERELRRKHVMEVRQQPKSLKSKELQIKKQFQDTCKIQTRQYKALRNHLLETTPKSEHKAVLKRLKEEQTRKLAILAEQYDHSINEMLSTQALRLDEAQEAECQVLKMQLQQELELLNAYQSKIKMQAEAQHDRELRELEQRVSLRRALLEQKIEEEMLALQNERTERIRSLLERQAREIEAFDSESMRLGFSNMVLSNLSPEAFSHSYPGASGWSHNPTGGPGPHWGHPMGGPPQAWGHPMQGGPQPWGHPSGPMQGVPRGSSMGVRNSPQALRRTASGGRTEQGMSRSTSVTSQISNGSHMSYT

ADRBK1 (human) = ADRBK1 (human) (UniProt P25098)
SRMS (human) = SRMS (human) (UniProt Q9H3Y6)
ADRBK2 (human) = ADRBK2 (human) (UniProt P35626)
CHEK1 (human) = CHEK1 (human) (UniProt O14757)
CHEK1 (human), sequence (O14757 whole entry, looked up): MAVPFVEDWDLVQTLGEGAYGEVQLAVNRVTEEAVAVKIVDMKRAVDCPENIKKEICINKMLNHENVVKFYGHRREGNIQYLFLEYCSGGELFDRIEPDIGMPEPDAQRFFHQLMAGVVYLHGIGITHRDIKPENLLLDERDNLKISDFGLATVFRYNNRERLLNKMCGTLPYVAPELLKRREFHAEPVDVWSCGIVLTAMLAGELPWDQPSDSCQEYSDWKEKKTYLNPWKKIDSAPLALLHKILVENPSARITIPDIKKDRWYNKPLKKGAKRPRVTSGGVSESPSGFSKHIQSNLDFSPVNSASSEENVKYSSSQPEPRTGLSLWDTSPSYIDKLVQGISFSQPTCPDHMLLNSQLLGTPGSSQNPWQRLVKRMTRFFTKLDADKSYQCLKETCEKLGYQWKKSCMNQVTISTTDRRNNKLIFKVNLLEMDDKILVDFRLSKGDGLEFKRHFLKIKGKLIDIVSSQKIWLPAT

ULK2 (human) = ULK2 (human) (UniProt Q8IYT8)
OXSR1 (human) = OXSR1 (human) (UniProt O95747)
OXSR1 (human), sequence (O95747 whole entry, looked up): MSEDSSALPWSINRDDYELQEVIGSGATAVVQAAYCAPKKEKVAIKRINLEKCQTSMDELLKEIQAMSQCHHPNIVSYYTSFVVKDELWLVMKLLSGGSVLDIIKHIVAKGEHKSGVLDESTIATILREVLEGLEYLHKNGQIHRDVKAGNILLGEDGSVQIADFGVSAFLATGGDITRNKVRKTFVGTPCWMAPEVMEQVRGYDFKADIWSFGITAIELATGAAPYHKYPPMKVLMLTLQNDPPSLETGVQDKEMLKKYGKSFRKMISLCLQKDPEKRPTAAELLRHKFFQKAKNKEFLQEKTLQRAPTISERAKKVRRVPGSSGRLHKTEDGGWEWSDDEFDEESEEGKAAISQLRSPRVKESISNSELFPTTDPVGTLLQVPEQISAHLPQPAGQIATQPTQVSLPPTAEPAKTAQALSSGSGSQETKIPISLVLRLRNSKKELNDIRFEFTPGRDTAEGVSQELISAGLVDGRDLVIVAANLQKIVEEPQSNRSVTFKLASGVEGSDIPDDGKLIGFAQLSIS

PLK3 (human) = PLK3 (human) (UniProt Q9H4B4)
PIM3 (human) = PIM3 (human) (UniProt Q86V86)
RPS6KA1 KD1 KD2 (human) = RPS6KA1 KD1 KD2 (human) (UniProt Q15418)
ABL2 (human) = ABL2 (human) (UniProt P42684)
EPHB4 (human) = EPHB4 (human) (UniProt P54760)
STK25 (human) = STK25 (human) (UniProt O00506)
CAMKK2 (human) = CAMKK2 (human) (UniProt Q96RR4)
TYRO3 (human) = TYRO3 (human) (UniProt Q06418)
RPS6KA4 KD2 (human) = RPS6KA4 KD2 (human) (UniProt O75676)
PRKG1 (human) = PRKG1 (human) (UniProt Q13976)
JAK2 JH1 JH2 (human) = JAK2 JH1 JH2 (human) (UniProt O60674)
JAK2 JH1 JH2 (human), sequence (O60674 whole entry, looked up): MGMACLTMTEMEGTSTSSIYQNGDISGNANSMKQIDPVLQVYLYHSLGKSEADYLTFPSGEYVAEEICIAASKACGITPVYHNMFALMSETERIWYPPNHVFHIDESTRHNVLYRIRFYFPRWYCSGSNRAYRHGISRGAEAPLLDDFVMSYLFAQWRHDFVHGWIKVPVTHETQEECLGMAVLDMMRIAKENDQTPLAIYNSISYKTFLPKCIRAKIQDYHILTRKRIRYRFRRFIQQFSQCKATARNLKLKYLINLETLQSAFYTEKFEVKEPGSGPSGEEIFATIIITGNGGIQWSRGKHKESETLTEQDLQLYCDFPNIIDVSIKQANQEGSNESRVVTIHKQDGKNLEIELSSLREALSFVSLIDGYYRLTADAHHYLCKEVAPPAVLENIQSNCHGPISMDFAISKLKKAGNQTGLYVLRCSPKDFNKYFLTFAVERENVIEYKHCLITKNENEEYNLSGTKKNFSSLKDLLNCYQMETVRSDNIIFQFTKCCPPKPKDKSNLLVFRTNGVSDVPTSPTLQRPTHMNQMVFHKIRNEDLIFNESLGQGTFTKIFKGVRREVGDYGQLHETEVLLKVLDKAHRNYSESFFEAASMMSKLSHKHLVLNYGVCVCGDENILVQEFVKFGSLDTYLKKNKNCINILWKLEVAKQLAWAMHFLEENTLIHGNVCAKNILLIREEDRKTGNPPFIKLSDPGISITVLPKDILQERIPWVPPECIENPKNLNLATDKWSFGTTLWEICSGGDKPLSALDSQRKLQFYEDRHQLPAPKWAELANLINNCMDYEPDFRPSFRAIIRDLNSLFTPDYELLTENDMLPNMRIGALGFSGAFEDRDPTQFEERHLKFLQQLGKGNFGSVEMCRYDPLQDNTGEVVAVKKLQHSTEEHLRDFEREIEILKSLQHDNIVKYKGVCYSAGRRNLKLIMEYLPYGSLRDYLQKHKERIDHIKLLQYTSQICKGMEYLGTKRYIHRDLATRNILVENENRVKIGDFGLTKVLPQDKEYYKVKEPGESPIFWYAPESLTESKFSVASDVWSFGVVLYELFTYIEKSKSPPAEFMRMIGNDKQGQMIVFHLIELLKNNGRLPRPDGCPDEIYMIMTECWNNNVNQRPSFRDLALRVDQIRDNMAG

LCK (human) = LCK (human) (UniProt P06239)
MAP3K10 (human) = MAP3K10 (human) (UniProt Q02779)
EGFR (human) = EGFR (human) (UniProt P00533)
DAPK2 (human) = DAPK2 (human) (UniProt Q9UIK4)
NUAK1 (human) = NUAK1 (human) (UniProt O60285)
LYN (human) = LYN (human) (UniProt P07948)
CDC42BPA (human) = CDC42BPA (human) (UniProt Q5VT25)
CDC42BPA (human), sequence (Q5VT25 whole entry, looked up): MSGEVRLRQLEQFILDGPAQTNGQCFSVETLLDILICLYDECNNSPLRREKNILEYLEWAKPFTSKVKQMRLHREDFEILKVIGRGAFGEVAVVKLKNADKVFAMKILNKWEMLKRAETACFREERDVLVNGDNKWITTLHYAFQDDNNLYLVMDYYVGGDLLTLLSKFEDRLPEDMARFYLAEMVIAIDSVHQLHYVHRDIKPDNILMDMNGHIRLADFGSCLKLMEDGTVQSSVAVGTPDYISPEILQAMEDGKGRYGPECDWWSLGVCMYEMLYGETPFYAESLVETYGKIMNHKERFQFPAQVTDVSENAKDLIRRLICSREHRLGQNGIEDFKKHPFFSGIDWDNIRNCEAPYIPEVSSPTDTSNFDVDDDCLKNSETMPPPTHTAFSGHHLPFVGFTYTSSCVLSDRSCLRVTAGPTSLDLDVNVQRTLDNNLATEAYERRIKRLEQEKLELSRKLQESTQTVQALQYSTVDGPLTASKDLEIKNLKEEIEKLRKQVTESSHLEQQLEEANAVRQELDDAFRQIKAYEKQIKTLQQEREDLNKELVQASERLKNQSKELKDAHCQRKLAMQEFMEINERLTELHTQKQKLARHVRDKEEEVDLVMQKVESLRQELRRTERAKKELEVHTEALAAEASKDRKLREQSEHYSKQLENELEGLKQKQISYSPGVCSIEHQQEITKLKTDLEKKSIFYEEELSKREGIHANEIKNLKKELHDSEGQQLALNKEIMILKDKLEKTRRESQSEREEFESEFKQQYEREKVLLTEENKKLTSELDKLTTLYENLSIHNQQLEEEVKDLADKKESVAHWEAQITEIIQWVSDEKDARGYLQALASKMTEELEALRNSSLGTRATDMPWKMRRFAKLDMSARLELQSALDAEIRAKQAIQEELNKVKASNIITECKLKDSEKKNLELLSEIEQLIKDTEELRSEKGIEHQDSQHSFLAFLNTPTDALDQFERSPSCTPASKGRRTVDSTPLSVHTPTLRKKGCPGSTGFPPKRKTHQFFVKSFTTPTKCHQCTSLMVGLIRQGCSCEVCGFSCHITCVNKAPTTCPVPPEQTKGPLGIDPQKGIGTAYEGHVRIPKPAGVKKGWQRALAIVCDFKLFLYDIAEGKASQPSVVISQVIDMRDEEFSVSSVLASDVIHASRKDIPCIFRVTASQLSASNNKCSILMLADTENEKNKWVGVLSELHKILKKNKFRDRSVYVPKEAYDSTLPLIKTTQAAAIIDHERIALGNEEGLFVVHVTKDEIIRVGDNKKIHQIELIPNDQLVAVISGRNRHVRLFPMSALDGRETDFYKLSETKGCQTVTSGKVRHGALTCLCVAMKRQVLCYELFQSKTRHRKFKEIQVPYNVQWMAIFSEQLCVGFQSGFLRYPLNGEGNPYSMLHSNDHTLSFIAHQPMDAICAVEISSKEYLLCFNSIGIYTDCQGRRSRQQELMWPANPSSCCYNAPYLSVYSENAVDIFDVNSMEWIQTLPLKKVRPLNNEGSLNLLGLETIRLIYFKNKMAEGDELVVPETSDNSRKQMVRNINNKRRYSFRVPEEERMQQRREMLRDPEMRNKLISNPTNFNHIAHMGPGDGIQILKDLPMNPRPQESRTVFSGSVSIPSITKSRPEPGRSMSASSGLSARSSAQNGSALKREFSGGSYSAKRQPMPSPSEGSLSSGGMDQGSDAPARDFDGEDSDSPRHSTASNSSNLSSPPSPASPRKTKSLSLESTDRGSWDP

DYRK1B (human) = DYRK1B (human) (UniProt Q9Y463)
INSR (human) = INSR (human) (UniProt P06213)
YES1 (human) = YES1 (human) (UniProt P07947)
PAK7 (human) = PAK7 (human) (UniProt Q9P286)
ERBB2 (human) = ERBB2 (human) (UniProt P04626)
WEE1 (human) = WEE1 (human) (UniProt P30291)

Row | SMILES | residual activity (DSTYK (human)) [%] | residual activity (CAMK1D (human)) [%] | residual activity (NTRK2 (human)) [%] | residual activity (FGR (human)) [%] | residual activity (TAOK1 (human)) [%] | residual activity (ADRBK1 (human)) [%] | residual activity (SRMS (human)) [%] | residual activity (ADRBK2 (human)) [%] | residual activity (ULK2 (human)) [%] | residual activity (OXSR1 (human)) [%] | residual activity (PLK3 (human)) [%] | residual activity (PIM3 (human)) [%] | residual activity (RPS6KA1 KD1 KD2 (human)) [%] | residual activity (ABL2 (human)) [%] | residual activity (EPHB4 (human)) [%] | residual activity (STK25 (human)) [%] | residual activity (CAMKK2 (human)) [%] | residual activity (TYRO3 (human)) [%] | residual activity (RPS6KA4 KD2 (human)) [%] | residual activity (PRKG1 (human)) | further results
1 | COc1cc2ncnc(Nc3ccc(O)c(Br)c3)c2cc1OC | 106 | 98.6 | 94.8 | 57.8 | 93.3 | 99 | 90.4 | 103 | 104 | 98.8 | 95.2 | 73.3 | 78.2 | 58.4 | 52.2 | 99.6 | 92.4 | 78.6 | 93.8 | 87.1% and 88.9% | residual activity (CHEK1 (human)): 92.8%; residual activity (JAK2 JH1 JH2 (human)): 95%; residual activity (LCK (human)): 48.9%; residual activity (MAP3K10 (human)): 98.2%; residual activity (EGFR (human)): 2.22%; residual activity (DAPK2 (human)): 100%; residual activity (NUAK1 (human)): 68.2%; residual activity (LYN (human)): 40.3% and 60%; residual activity (CDC42BPA (human)): 96.9%; residual activity (DYRK1B (human)): 91.3%; residual activity (INSR (human)): 92.4%; residual activity (YES1 (human)): 34.6%; residual activity (PAK7 (human)): 97.7%; residual activity (ERBB2 (human)): 33.1%; residual activity (WEE1 (human)): 92.5%
2 | N/C(=N\N=C/c1ccc(-c2cccc([N+](=O)[O-])c2)o1)N[N+](=O)[O-] | 95.4 | 96.4 | 82.4 | 90.9 | 89.6 | 98.9 | 90.2 | 102 | 87.3 | 102 | 96.8 | 114 | 86.3 | 95.7 | 91.6 | 86.3 | 114 | 91.5 | 98.9 | 87.4% and 95.8% | residual activity (JAK2 JH1 JH2 (human)): 98.8%; residual activity (LCK (human)): 98.6%; residual activity (MAP3K10 (human)): 101%; residual activity (EGFR (human)): 100%; residual activity (DAPK2 (human)): 80.1%; residual activity (NUAK1 (human)): 96.4%; residual activity (LYN (human)): 96.3% and 99.4%; residual activity (CDC42BPA (human)): 87.3%; residual activity (DYRK1B (human)): 104%; residual activity (INSR (human)): 92%; residual activity (YES1 (human)): 95.6%; residual activity (PAK7 (human)): 97%; residual activity (ERBB2 (human)): 100%; residual activity (WEE1 (human)): 100%
3 | O=C1NC(=O)c2c1c1c3ccccc3[nH]c1c1[nH]c3cc(Br)ccc3c21 | 65.6 | 92.2 | 68.1 | 88.8 | 68.4 | 97.6 | 91.5 | 95.2 | 86 | 95.8 | 93.3 | 4.69 | 58.4 | 93.8 | 86.5 | 84.4 | 48.1 | 89.7 | 75.9 | 76% and 90.7% | residual activity (CHEK1 (human)): 79.7%; residual activity (JAK2 JH1 JH2 (human)): 95.8%; residual activity (LCK (human)): 88.9%; residual activity (MAP3K10 (human)): 70.4%; residual activity (EGFR (human)): 100%; residual activity (DAPK2 (human)): 98.4%; residual activity (NUAK1 (human)): 14.3%; residual activity (LYN (human)): 92.1% and 93.2%; residual activity (CDC42BPA (human)): 97.5%; residual activity (DYRK1B (human)): 82.8%; residual activity (INSR (human)): 86.4%; residual activity (YES1 (human)): 88.4%; residual activity (PAK7 (human)): 96.7%; residual activity (ERBB2 (human)): 101%; residual activity (WEE1 (human)): 74.6%
4 | O=c1c2ccccc2[nH]c(=S)n1CCN1CCC(=C(c2ccc(F)cc2)c2ccc(F)cc2)CC1 | 86.5 | 96.8 | 106 | 95.4 | 101 | 100 | 96.7 | 102 | 96.5 | 115 | 96.2 | 108 | 97.9 | 103 | 97.1 | 96.6 | 100 | 91.1 | 103 | 102% and 95.7% | residual activity (CHEK1 (human)): 108%; residual activity (JAK2 JH1 JH2 (human)): 92%; residual activity (LCK (human)): 99.5%; residual activity (MAP3K10 (human)): 99.6%; residual activity (EGFR (human)): 101%; residual activity (DAPK2 (human)): 104%; residual activity (NUAK1 (human)): 102%; residual activity (LYN (human)): 105% and 108%; residual activity (CDC42BPA (human)): 97.7%; residual activity (DYRK1B (human)): 97.1%; residual activity (INSR (human)): 94.3%; residual activity (YES1 (human)): 99.2%; residual activity (PAK7 (human)): 97.4%; residual activity (ERBB2 (human)): 98.8%; residual activity (WEE1 (human)): 93%
